Measurements reported in ChEMBL document CHEMBL5465560, “Selectivity Literature for EUbOPEN Chemogenomic Library” (2024).

Assays:
[1] = molecular target: Calcium/calmodulin-dependent protein kinase kinase 2 (Homo sapiens) (UniProt Q96RR4); assay: Selectivity interaction (KinomeScan (DiscoverX)) EUB0001049a CAMKK2; conditions: at 1 µM
[2] = molecular target: Bone morphogenetic protein receptor type-1A (Homo sapiens, UniProt P36894); assay: Selectivity interaction (Kinase panel (Invitrogen)) EUB0000639a BMPR1A; conditions: at 200 nM
[3] = molecular target: T1, Serine/threonine-protein kinase LATS1 (Homo sapiens) (UniProt O95835); assay: Selectivity interaction (ActivX KiNativ screen (kinase selectivity in THP-1 cell lysates)) EUB0000639a LATS1; assay type: subcellular; conditions: lysate
T1 sequence (whole entry): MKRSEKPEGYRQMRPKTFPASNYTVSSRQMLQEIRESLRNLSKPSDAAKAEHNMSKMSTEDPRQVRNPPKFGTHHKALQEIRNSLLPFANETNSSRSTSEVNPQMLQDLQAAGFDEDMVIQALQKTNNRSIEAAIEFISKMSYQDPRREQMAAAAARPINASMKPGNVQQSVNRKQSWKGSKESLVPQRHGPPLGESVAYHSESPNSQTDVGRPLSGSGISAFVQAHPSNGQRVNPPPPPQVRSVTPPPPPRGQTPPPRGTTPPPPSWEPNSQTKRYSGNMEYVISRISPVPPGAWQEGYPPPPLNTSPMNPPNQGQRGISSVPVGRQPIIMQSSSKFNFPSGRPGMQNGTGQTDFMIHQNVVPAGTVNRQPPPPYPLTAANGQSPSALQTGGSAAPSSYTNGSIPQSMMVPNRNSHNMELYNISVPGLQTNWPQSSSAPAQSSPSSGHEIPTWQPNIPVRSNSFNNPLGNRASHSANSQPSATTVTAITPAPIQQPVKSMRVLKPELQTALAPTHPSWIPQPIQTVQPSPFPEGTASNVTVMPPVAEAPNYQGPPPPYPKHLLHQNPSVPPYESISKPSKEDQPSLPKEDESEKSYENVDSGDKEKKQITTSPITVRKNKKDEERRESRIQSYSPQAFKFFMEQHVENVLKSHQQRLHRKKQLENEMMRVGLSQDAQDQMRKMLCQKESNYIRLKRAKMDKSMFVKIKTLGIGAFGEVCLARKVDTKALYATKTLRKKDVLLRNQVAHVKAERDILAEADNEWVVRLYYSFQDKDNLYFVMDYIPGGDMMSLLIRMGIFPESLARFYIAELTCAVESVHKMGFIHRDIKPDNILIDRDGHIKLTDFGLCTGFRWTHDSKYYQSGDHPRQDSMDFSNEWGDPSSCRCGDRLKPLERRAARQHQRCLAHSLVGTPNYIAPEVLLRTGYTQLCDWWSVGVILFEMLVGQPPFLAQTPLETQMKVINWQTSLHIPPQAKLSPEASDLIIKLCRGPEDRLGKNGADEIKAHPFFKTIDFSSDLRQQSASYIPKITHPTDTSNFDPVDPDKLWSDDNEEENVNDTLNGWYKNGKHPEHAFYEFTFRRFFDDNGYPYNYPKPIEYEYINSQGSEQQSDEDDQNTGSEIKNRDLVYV

[4] = molecular target: Bromodomain-containing protein 4 (Homo sapiens, UniProt O60885); assay: Selectivity interaction (Bromodomain panel (DSF asssay)) EUB0000270b BRD4
[5] = molecular target: Tyrosine-protein kinase ABL1 (Homo sapiens, UniProt P00519); assay: Selectivity interaction (Kinase panel (33PanQinase(R) Activity Assay)) EUB0000877a ABL1
[6] = molecular target: Tyrosine-protein kinase JAK1 (Homo sapiens, UniProt P23458)
[7] = molecular target: T2, Mitogen-activated protein kinase 15 (Homo sapiens) (UniProt Q8TD08); assay: Selectivity interaction (LanthaScreen Eu Kinase Binding Assay) EUB0001632a MAPK15; conditions: at 10 µM
T2 sequence (whole entry): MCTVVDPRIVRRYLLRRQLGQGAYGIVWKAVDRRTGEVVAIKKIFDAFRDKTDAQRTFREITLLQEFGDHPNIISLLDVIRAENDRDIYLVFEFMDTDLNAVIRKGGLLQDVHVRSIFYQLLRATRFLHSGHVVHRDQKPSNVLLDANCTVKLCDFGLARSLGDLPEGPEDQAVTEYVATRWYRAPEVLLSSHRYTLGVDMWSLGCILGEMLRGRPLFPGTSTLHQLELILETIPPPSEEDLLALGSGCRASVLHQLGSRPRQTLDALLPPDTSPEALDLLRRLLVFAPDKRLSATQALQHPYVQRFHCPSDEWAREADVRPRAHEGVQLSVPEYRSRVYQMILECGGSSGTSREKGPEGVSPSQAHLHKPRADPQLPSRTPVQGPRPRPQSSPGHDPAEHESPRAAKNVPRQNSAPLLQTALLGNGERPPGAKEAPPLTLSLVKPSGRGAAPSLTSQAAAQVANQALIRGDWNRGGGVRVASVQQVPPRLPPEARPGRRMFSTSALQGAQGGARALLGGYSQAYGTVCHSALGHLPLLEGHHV

[8] = molecular target: ALK tyrosine kinase receptor (Homo sapiens, UniProt Q9UM73); assay: Selectivity interaction (KinomeScan (DiscoverX)) EUB0000595a ALK; conditions: at 10 µM
[9] = molecular target: 5'-AMP-activated protein kinase catalytic subunit alpha-2 (Homo sapiens) (UniProt P54646); assay: Selectivity interaction (KinomeScan (DiscoverX)) EUB0000595a PRKAA2; conditions: at 10 µM
[10] = tested on: Phosphatidylinositol 4,5-bisphosphate 3-kinase catalytic subunit alpha isoform (Homo sapiens), P42336 [H1047Y]; conditions: at 10 µM
[11] = molecular target: Serine/threonine-protein kinase 10 (Homo sapiens) (UniProt O94804); conditions: at 10 µM
[12] = tested on: eIF-2-alpha kinase GCN2 (Homo sapiens), Q9P2K8 [S808G]; assay: Selectivity interaction (KinomeScan (DiscoverX)) EUB0000229b EIF2AK4; conditions: at 10 µM
[13] = molecular target: Epithelial discoidin domain-containing receptor 1 (Homo sapiens) (UniProt Q08345); assay: Selectivity interaction (KinomeScan (DiscoverX)) EUB0001079a DDR1; conditions: at 1 µM
[14] = molecular target: Homeodomain-interacting protein kinase 3 (Homo sapiens, UniProt Q9H422); assay: Selectivity interaction (ProQinase) EUB0000171b HIPK3
Activated CDC42 kinase 1 = Activated CDC42 kinase 1 (Homo sapiens, UniProt Q07912); assay: Selectivity interaction (KinomeScan (DiscoverX)) EUB0000045b TNK2
[15] = molecular target: Ribosomal protein S6 kinase alpha-6 (Homo sapiens, UniProt Q9UK32); assay: Selectivity interaction (KinomeScan (DiscoverX)) EUB0000311b RPS6KA6; conditions: at 1 µM
[16] = molecular target: Mitogen-activated protein kinase 11 (Homo sapiens) (UniProt Q15759); assay: Selectivity interaction (KinomeScan (DiscoverX)) EUB0000607a MAPK11; conditions: at 10 µM
[17] = tested on: Phosphatidylinositol 4,5-bisphosphate 3-kinase catalytic subunit alpha isoform (Homo sapiens), P42336 [C420R]; conditions: at 10 µM

Activated CDC42 kinase 1, sequence (Q07912 whole entry, looked up): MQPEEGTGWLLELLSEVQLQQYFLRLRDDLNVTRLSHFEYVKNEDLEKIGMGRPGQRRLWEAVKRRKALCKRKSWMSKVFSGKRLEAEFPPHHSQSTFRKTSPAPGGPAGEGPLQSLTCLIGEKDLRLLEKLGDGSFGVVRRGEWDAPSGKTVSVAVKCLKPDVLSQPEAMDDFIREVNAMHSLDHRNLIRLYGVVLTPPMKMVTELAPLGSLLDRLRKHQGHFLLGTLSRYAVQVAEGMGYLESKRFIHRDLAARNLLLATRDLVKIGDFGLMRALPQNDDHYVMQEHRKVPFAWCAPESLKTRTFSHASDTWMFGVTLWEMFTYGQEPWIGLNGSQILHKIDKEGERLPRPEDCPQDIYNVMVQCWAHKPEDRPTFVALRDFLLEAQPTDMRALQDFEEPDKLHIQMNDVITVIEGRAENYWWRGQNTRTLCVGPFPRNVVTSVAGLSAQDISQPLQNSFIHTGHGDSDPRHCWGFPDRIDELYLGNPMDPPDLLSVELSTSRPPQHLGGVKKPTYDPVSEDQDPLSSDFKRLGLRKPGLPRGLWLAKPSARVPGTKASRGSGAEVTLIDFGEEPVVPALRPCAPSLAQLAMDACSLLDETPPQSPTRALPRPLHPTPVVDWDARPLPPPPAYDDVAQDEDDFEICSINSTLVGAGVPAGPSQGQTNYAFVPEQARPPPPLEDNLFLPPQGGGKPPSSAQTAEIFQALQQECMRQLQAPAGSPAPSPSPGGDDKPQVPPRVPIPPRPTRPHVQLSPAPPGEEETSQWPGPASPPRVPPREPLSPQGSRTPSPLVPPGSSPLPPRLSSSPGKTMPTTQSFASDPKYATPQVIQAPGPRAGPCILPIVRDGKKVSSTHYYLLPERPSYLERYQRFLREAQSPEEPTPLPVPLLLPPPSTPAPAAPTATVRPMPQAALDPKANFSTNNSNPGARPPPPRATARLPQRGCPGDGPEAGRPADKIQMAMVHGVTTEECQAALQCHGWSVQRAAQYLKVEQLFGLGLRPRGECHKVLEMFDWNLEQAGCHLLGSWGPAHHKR
Homeodomain-interacting protein kinase 3, sequence (Q9H422 whole entry, looked up): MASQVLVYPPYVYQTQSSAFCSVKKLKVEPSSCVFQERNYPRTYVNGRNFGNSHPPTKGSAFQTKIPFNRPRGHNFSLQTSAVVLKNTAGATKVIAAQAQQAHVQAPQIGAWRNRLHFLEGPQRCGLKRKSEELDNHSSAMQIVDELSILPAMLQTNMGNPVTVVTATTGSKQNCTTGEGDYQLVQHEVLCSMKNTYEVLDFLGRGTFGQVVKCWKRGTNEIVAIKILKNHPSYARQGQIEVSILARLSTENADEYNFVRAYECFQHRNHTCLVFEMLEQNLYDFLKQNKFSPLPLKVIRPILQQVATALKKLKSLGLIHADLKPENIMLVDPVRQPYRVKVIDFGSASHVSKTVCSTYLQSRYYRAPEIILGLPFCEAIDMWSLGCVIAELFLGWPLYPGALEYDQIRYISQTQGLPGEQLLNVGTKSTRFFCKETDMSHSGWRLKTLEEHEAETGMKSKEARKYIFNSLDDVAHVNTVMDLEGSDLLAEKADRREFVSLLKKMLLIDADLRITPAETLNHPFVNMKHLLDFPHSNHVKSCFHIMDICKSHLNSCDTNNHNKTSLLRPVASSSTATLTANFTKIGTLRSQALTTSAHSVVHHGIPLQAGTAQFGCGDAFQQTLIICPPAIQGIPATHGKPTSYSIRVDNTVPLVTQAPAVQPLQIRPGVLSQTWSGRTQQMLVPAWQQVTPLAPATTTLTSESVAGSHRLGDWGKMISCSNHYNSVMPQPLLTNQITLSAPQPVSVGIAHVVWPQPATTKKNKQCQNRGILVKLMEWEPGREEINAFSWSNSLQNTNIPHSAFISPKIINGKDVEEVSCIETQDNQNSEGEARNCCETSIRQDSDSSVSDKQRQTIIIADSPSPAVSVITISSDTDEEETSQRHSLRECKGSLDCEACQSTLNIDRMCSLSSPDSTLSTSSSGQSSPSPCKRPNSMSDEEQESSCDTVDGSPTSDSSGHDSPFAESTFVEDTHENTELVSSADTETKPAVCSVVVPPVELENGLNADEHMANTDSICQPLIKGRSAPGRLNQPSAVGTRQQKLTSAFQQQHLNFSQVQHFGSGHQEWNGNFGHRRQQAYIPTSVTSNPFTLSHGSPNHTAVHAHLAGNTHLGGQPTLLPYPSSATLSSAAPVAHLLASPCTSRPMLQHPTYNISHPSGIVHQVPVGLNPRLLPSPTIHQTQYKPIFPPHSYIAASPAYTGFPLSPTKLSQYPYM
Calcium/calmodulin-dependent protein kinase kinase 2 (Homo sapiens), sequence (Q96RR4 2-588 limits assumed): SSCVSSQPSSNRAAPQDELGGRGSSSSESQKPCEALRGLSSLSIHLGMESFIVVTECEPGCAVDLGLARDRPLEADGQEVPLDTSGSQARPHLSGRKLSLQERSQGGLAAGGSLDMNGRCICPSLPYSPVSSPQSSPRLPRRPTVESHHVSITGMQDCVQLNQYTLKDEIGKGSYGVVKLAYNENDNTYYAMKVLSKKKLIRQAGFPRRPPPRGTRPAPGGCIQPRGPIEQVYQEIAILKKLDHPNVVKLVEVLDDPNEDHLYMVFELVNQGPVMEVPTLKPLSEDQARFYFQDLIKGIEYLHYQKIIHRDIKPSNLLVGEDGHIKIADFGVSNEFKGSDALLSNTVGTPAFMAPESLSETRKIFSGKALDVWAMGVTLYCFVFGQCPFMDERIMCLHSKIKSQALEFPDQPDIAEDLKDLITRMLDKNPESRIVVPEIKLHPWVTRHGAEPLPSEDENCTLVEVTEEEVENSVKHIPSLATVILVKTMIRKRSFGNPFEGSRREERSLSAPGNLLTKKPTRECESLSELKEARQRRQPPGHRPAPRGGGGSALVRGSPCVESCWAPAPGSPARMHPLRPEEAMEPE
Tyrosine-protein kinase ABL1, sequence (P00519 whole entry): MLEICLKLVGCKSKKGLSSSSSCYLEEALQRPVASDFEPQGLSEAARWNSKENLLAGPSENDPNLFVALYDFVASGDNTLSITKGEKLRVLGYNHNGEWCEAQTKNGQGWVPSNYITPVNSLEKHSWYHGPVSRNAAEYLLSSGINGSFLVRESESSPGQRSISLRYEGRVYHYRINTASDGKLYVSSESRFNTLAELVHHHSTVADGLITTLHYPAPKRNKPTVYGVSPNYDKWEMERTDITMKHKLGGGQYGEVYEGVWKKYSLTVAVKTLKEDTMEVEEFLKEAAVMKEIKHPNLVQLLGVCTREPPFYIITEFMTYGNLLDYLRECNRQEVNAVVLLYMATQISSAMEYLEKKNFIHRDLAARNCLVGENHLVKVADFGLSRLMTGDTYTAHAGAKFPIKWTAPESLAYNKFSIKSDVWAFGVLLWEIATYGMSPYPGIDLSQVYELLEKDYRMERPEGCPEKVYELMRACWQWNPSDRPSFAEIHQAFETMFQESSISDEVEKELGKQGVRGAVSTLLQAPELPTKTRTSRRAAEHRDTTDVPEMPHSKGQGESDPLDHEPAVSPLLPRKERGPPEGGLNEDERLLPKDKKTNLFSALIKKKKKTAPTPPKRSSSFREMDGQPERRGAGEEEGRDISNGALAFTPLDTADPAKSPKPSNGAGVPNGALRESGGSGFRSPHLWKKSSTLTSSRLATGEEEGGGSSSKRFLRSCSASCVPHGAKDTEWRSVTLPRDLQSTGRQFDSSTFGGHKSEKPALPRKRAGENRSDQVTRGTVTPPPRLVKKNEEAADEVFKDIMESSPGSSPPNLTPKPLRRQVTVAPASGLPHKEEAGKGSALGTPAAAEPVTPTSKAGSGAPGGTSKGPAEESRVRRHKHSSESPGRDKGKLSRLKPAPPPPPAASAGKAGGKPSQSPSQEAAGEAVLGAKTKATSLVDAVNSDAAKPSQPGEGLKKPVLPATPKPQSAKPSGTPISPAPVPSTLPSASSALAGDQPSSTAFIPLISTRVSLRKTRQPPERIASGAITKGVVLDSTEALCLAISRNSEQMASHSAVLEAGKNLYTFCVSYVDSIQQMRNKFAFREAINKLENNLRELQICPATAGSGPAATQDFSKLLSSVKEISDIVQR
Tyrosine-protein kinase JAK1, sequence (P23458 whole entry): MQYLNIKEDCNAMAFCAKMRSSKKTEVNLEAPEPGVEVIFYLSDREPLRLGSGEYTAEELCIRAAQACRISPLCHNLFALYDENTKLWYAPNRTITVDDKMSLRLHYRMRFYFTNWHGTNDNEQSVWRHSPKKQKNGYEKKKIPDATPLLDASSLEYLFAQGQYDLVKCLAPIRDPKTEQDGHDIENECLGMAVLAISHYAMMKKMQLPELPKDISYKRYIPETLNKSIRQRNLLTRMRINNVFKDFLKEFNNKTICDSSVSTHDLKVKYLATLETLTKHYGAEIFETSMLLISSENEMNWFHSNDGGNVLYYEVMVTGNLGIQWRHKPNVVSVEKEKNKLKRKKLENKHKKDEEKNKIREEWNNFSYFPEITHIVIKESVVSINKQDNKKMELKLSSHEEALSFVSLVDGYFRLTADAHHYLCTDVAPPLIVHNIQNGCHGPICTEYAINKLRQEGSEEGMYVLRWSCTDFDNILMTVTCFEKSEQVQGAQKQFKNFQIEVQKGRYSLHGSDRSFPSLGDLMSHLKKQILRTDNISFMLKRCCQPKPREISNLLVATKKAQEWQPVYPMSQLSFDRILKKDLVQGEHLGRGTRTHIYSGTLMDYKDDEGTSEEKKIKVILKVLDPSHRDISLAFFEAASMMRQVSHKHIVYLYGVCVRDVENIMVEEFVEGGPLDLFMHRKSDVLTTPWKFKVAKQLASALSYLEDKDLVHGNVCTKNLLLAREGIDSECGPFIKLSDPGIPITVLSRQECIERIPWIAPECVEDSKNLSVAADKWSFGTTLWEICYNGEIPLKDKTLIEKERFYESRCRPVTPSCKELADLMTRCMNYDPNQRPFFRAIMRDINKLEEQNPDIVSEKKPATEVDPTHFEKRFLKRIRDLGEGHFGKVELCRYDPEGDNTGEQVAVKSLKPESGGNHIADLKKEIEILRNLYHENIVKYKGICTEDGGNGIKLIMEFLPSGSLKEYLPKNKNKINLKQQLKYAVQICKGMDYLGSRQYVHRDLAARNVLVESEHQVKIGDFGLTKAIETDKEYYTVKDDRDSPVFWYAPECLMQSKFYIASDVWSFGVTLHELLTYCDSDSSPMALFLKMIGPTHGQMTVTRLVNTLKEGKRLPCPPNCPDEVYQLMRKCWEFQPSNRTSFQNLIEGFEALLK

SMILES: COc1cc(Nc2nc(C)cc(-c3cnn4nc(OC)ccc34)n2)cc(C(F)(F)F)c1
- % of control [1]: 100%

SMILES: CC[C@@H]1[C@H](F)C(=O)N[C@@H]1COc1nccc2cc(C(N)=O)c(OC)cc12 [ZIMLOVISERTIB]
- % of inhibition [2]: 20.8%
- % of inhibition ([3]; at 0.01 µM): -5.5%
- % of inhibition ([3]; at 0.04 µM): -23.7%
- % of inhibition ([3]; at 0.2 µM): -87.3%
- % of inhibition ([3]; at 1 µM): -76.3%
- % of inhibition ([3]; at 5 µM): -29.4%

SMILES: Cc1cc(CN)cc(C)c1-c1ncn(C)c1-c1cncn1C
- dTM [4]: -0.92 K

SMILES: CCC(=O)N1CC[C@H](Nc2ncnc3c2CN(c2cnc(OC)c(C(F)(F)F)c2)CC3)C1 [LENIOLISIB]
- IC50 [5]: > 10 µM

SMILES: CCc1cccc(CC)c1NC(=O)c1nn(C)c2c1CCc1cnc(Nc3ccc(C(=O)NC4CCN(C)CC4)cc3OC(F)(F)F)nc1-2
- IC50 [6]: > 10 µM

SMILES: Cn1cc(-n2cnc3c(NCc4nc5cc(Cl)c(Cl)cc5[nH]4)nc(N4CCOCC4)nc32)cn1
- % of inhibition [7]: -42.8%

SMILES: COCC(=O)NC/C=C/c1ccc2ncnc(Nc3ccc(Oc4ccc(C)nc4)c(C)c3)c2c1 [CP-724714]
- % of control [8]: 100%
- % of control [9]: 100%
- % of control [10]: 47%
- % of control [11]: 4.2%

SMILES: COc1cc(N(C)c2ccnc3ccc(C(F)(F)F)cc23)cc(OC)c1OC
- % binding [12]: 100%

SMILES: Nc1cnc(N2CCc3cc(S(=O)(=O)Nc4c(F)cc(Cl)cc4F)cc(N4CCCC4=O)c32)nc1 [TP-020n]
- % of control [13]: 100%

SMILES: C=CC(=O)Nc1cccc(C(=O)Nc2ccc(Nc3cc(-c4[nH]c(SC)nc4C)ccn3)cc2)c1
- % of control ([14]; at 1 µM): 93%
- % of control ([14]; at 5 µM): 90%

SMILES: C=CC(=O)Nc1cc(-n2c(=O)ccc3cnc4ccc(-c5ccc(NS(C)(=O)=O)cc5)cc4c32)ccc1C
- % of control (Activated CDC42 kinase 1; at 1 µM): 100%
- % of control (Activated CDC42 kinase 1; at 10 µM): 100%

SMILES: CCc1ccccc1C(=O)Nc1n[nH]c2c(C)c(F)c(C3C(C#N)=C(C)N(C)C(C)=C3C#N)cc12 [BAY-3827]
- % of control [15]: 2.9%

SMILES: CNC(=O)Nc1ccc(-c2nc(N3CC4CCC(C3)O4)c3cnn(C4CCC5(CC4)OCCO5)c3n2)cc1
- % of control [16]: 100%
- % of control [17]: 11%
